The values that follow come from US5393897A, “Isolation and structure of spongistatins 5,7,8 and 9” (Arizona Board of Regents acting on behalf of Arizona State …, priority 1993, dated 1995).

Common to all, as to assay: NCI cell line panel
Common to all, as to format: cell-based

For assay [1], the system named is UACC-257. As to conditions: Homo sapiens, Melanoma, read-out: Log10 GI50 (converted). An excerpt:
(§1) Only two hundred years ago, many diseases ravaged humankind. Many of these diseases now have been controlled or eradicated. In the development of the means to treat or control these diseases, work with the appropriate common experimental animals was of critical importance. With the various types of cancers, and with the HIV virus, such work is presently ongoing. The research for the treatment of various types of cancer is coordinated in the United States by the National Cancer Institute (NCI). NCI, as a government entity, has been charged with assisting anti-cancer research. To establish whether a substance has anti-cancer activity, NCI has established a variety of protocols, one of which involves testing the candidate substance against a cell line panel containing 60 human tumor cell lines. This protocol has been verified and is generally accepted throughout the scientific community. This protocol and the established statistical means of evaluating the results obtained therefrom have been fully described in the literature. See Principles & Practice of Oncology PPO Updates, Volume 3, Number 10, October 1989, by Michael R. Boyd, M.D., Ph.D., for an in depth description of the test protocol. The statistical analysis is explained in "Display and Analysis of Patterns of Differential Activity of Drugs Against Human Tumor Cell Lines: Development of Means Graph and COMPARE Algorithm" Journal of the National Cancer Institute Reports Vol. 81, No. 14, Pg. 1088, Jul. 14, 1989, by K. D. Paull et al. Both of these references are incorporated herein by this reference thereto. The effectiveness and validity of the NCI in vitro protocol continues to be verified.

The test system of assay [2] is MALME-3M. The following applies: Homo sapiens, read-out: Log10 GI50 (converted).
Source text: as §1

Assay [3] relates to HCT-116. As to conditions: Homo sapiens, Colon Cancer, read-out: Log10 GI50 (converted).
Source text: as §1

Assay [4] has as its system NCI-H522. The following applies: Homo sapiens, Non-Small Cell Lung Cancer, read-out: Log10 GI50 (converted).
Source text: as §1

The test system of assay [5] is HT29. As to conditions: Homo sapiens, HT-29; Colon Cancer; read-out: Log10 GI50 (converted).
Source text: as §1

The subject of assay [6] is MDA-N. The following applies: Homo sapiens, Breast Cancer, read-out: Log10 GI50 (converted).
Source text: as §1

As usually defined, the GI50 is the concentration at which growth is held to half of that of the control. As to `C=C/C=C/C(O)CC(=C)CC1OC2C(C)C(OC(=O)CC3CC(O)CC4(CC(C)(O)CC(C=C5COC(C(C)C(=O)CC6CC(OC)CC7(CC(O)CC(/C=C\CCCC8OC(O)(CC(O)C8C)C2O)O7)O6)C5C)O4)O3)C1O` (stereo not drawn) [spongistatin 7], the GI50 in assay [1] is 14.1 nM; in assay [2], 0.398 nM; in assay [3], 0.288 nM; in assay [4], 0.0282 nM; in assay [5] it was 1.51 nM; in assay [6] it was 0.0151 nM.
